Reference: patent publication US10757943B2, “Thidiazuron mixtures and uses thereof” (Valent BioSciences LLC, priority 2017, dated 2020)

Experiments:
Assay type in all cases: in vivo
Concord grape vines [1] = test: Bud break and harvest weight of endo-dormant two-year-old Concord grape vines in the greenhouse (Example 4); settings: thidiazuron ppm and 17-0-0 % as in label, 15-0-0 65,880 ppm
Source text: Two-year-old Concord grape vines were purchased commercially. These vines had just lost their leaves and were shipped shortly after they were dug at the nursery. Thus, the vines had not fulfilled their chilling requirement and were considered endo-dormant. The vines were potted individually into one-gallon pots containing ProMix® BX immediately upon receipt and subsequently pruned back to the five proximal buds on the one-year old wood. Within two hours of pruning, treatment solutions were applied using a foam paint brush to the remaining one-year old wood, including the cut end from pruning. Two treatments, water and hydrogen cyanimide, which acted as negative and positive controls, respectively, were included in all studies.
Treatment solutions were made fresh in water and contained 1% (v/v) non-ionic surfactant. In all cases, two treatment solutions were applied to the plants. Where a single component was used for a treatment, the first application solution was water containing surfactant; in the cases where combination treatments were made to the same plant, the first treatment solution was allowed to dry prior to applying the second.
The treated plants were kept in a conventional greenhouse under supplemental lighting. Greenhouse conditions were 65:60° F. Day:Night temperature with a 16:8 hour photoperiod. Relief from dormancy was assessed every two days during the course of the study. Dormancy was considered relieved upon the emergence of a green bud. Both the number of ‘broken buds’ per plant and the date of relief of plants from dormancy were assessed. At the close of the study, new growth was removed from each of the treated plants and weighed.

Concord grape vines [2] = test: Bud break and shoot growth of potted dormant Concord grape vines in the greenhouse (Example 1); settings: for % bud break (vines with at least one bud break): hydrogen cyanamide 10,000 ppm, 17-0-0 197,100 ppm, 15-0-0 239,060 ppm, ACC 1,000 ppm; for Initial to 50% Bud Break: synchrony of bud break; for 50% Bud Break (DAT): time to 50% bud break
Source text: An aqueous 50% hydrogen cyanamide solution (Sigma-Aldrich, St. Louis, Mo. USA) was used as the source of hydrogen cyanamide. The commercial product, Dormex® contains 50% hydrogen cyanamide (w/v) in water.
Erger® was used as the source of 15-0-0 fertilizer. (Erger is a registered trademark of Valagro S.P.A., Italy and is available from Helena Chemical Company, Collierville, Tenn., USA). Erger® contains 15% total nitrogen as 3.1% ammoniacal nitrogen, 5.8% nitrate nitrogen and 6.1% urea nitrogen and 3.3% calcium derived from ammonium nitrate, calcium nitrate and urea. As used herein, the term “15-0-0 fertilizer” refers to the Erger® formulation above and all formulations described in International PCT application publication WO/2001/037653A2 by Valagro S.P.A., Italy, which is incorporated, herein, in its entirety.
CAN-17 was used as the source of 17-0-0 fertilizer. CAN-17 contains 17% total nitrogen as 4.6% ammonium nitrogen and […] nitrate nitrogen and 1.3% urea nitrogen and 8.8% calcium derived from ammonium nitrate and calcium nitrate. CAN-17 is available from J.R. Simplot Company (Boise, Id., USA).
To assess the ability of mixtures of the invention to promote and synchronize bud break these mixtures were applied to Concord grape vines and examined for bud break (initiation of growth) and subsequent shoot development. Specifically, 1 year old dormant bare rooted Concord grape vines were planted in pots containing Pro-Mix® BX potting soil (Pro-Mix is a registered trademark of and available from Premier Horticulture Ltd.) and pruned to 5 nodes on a single shoot. Aqueous solutions of thidiazuron, hydrogen cyanamide, 15-0-0 fertilizer, 17-0-0 fertilizer and 1-aminocyclopropane-1-carboxylic acid (“ACC”), and mixtures thereof were each applied individually or sequentially or co-applied to the first-year wood of separate Concord grape vines. Plants were grown in the greenhouse for 49 days and evaluated for percent of vines showing bud break, or relief from dormancy, periodically between 7 days and the conclusion of the experiment. […] At 49 days after treatment (DAT), the plants were sacrificed and measured for total number of flower clusters, total new shoot length, longest new shoot, combined new shoot fresh weight and combined new shoot dry weight. New shoot growth is the growth arising from the dormant buds not including the woody growth that was planted and gave rise to the new growth.
Synergy is calculated by the Abbott method: %Cexp=A+B−(AB/100), where % Cexp is the expected efficacy and in which A and B are the speed of bud break or shoot length or shoot weight given by the single active ingredients. If the ratio between the experimentally observed efficacy of the mixture Cobs and the expected efficacy of the mixture is greater than 1, synergistic interactions are present in the mixture” (Gisi, Synergistic Interaction of Fungicides in Mixtures, The American Phytopathological Society, 86:11, 1273-1279,1996).

[3] = system: Red Flame seedless grape vines; test: Bud break and shoot length of field-grown Red Flame seedless grape vines (Example 2); settings: hydrogen cyanamide 10,000 ppm, thidiazuron 300 ppm, 17-0-0 197,100 ppm
Method: To assess the ability of mixtures of the invention to promote and synchronize bud break these mixtures were applied to field-grown Red Flame seedless grape vines and examined for bud break (initiation of growth) and subsequent shoot development. Thidiazuron, hydrogen cyanamide, 17-0-0 fertilizer, and mixtures thereof were each applied individually or sequentially (co-applied) to the separate spurs of Red Flame seedless grape vines. Plants were evaluated for bud break at 31 days after treatment, for percent bud break and total new shoot length at 48 days after treatment. Results of these evaluations can be seen below in Tables 4 and 5.

[4] = 49 days post treatment, thidiazuron ppm as in label, other concentrations as in Table 1
[5] = thidiazuron 300 ppm unless label states other, other concentrations as in Table 1
[6] = thidiazuron 300 ppm unless label states other, other concentrations as in Table 1, listed as hydrogen cyanamide

With `N#CN` [Hydrogen Cyanamide, hydrogen cyanamide] the “Fresh Shoot Weight (g)/Plant” value (Concord grape vines [1]; new growth at close of study) was 31.49 g, the “50% Bud Break (DAT)” value (Concord grape vines [1]) was 16 DAT and the “100% Bud Break (DAT)” value (Concord grape vines [1]) was 33 DAT. The “Initial to 50% Bud Break” value (Concord grape vines [1]) was 2, the “Number of Buds Broken/Plant” value (Concord grape vines [1]) was 1.5 and the “% bud break (vines with at least one bud break)” value (Concord grape vines [2]; 7 DAT, thidiazuron 300 ppm unless label states other) was 0%. For the same compound, the “% bud break (vines with at least one bud break)” value (Concord grape vines [2]; 10 DAT, thidiazuron 300 ppm unless label states other) was 11.1%, the “% bud break (vines with at least one bud break)” value (Concord grape vines [2]; 13 DAT, thidiazuron 300 ppm unless label states other) was 44.4% and the “% bud break (vines with at least one bud break)” value (Concord grape vines [2]; 15 DAT, thidiazuron 300 ppm unless label states other) was 66.7%. For the same compound, the “% bud break (vines with at least one bud break)” value (Concord grape vines [2]; 17 DAT, thidiazuron 300 ppm unless label states other) was 77.8%, the “% bud break (vines with at least one bud break)” value (Concord grape vines [2]; 20 DAT, thidiazuron 300 ppm unless label states other) was 88.9% and the “% bud break (vines with at least one bud break)” value (Concord grape vines [2]; 22 DAT, thidiazuron 300 ppm unless label states other) was 88.9%. For the same compound, the “% bud break (vines with at least one bud break)” value (Concord grape vines [2]; 24 DAT, thidiazuron 300 ppm unless label states other) was 88.9%, the “% bud break (vines with at least one bud break)” value (Concord grape vines [2]; 27 DAT, thidiazuron 300 ppm unless label states other) was 88.9% and the “% bud break (vines with at least one bud break)” value (Concord grape vines [2]; 29 DAT, thidiazuron 300 ppm unless label states other) was 88.9%. For the same compound, the “% bud break (vines with at least one bud break)” value (Concord grape vines [2]; 31 DAT, thidiazuron 300 ppm unless label states other) was 88.9%, the “% bud break (vines with at least one bud break)” value (Concord grape vines [2]; 34 DAT, thidiazuron 300 ppm unless label states other) was 100.0% and the “% bud break (vines with at least one bud break)” value (Concord grape vines [2]; 36 DAT, thidiazuron 300 ppm unless label states other) was 100.0%. The “% bud break (vines with at least one bud break)” value (Concord grape vines [2]; 38 DAT, thidiazuron 300 ppm unless label states other) was 100.0%, the “% bud break (vines with at least one bud break)” value (Concord grape vines [2]; 41 DAT, thidiazuron 300 ppm unless label states other) was 100.0% and the “% bud break (vines with at least one bud break)” value (Concord grape vines [2]; 43 DAT, thidiazuron 300 ppm unless label states other) was 100.0%. The “% bud break (vines with at least one bud break)” value (Concord grape vines [2]; 49 DAT, thidiazuron 300 ppm unless label states other) was 100.0%, the “Combined Shoot Dry Weight” value (Concord grape vines [2]; [4]) was 9.0 g and the “Combined Shoot Fresh Weight” value (Concord grape vines [2]; [4]) was 39.3 g. For the same compound, the “Longest Shoot Length” value (Concord grape vines [2]; [4]) was 83.8 cm, the “Total # of Flower Clusters” value (Concord grape vines [2]; [4]) was 0.0 and the “Total Shoot Length” value (Concord grape vines [2]; [4]) was 129.8 cm. For the same compound, the “Dry Weight (g)/25% Bud Break to Harvest (d)” value (Concord grape vines [2]; combined shoot dry weight at 49 DAT normalised by days from 25% bud break to harvest) was 0.24 g/day, the “Dry Weight (g)/50% Bud Break to Harvest (d)” value (Concord grape vines [2]; combined shoot dry weight at 49 DAT normalised by days from 50% bud break to harvest) was 0.26 g/day and the “Fresh Weight (g)/50% Bud Break to Harvest (d)” value (Concord grape vines [2]; combined shoot fresh weight at 49 DAT normalised by days from 50% bud break to harvest) was 1.12 g/day. For the same compound, the “50% Bud Break to Harvest” value (Concord grape vines [2]; harvest at day 49, thidiazuron 300 ppm unless label states other, other concentrations as in Table 1) was 35 days, the “Initial to 50% Bud Break” value (Concord grape vines [2]; [5]) was 5 days and the “Initial to 50% Bud Break” value (Concord grape vines [2]; [6]) was no more than 5 days. The “25% Bud Break (DAT)” value (Concord grape vines [2]; time to 25% bud break, thidiazuron 300 ppm unless label states other, other concentrations as in Table 1) was 11 DAT, the “50% Bud Break (DAT)” value (Concord grape vines [2]; [5]) was 14 DAT and the “50% Bud Break (DAT)” value (Concord grape vines [2]; [6]) was no more than 14 DAT. The “Broken Buds per plant (Average Buds Broken per Spur)” value ([3]; 31 days after treatment) was 0.53, the “% Broken Buds” value ([3]; 48 days after treatment) was 58.8% and the “Total Shoot Length” value ([3]; 48 days after treatment) was 25.2.
